Measurements from PubChem BioAssay AID248 (DTP/NCI, 2004).
Values joined by “and” are separate entries in the source; they are usually repeats but may differ in a detail not shown here. Equal entries are not always repeated. Inconclusive results and toxic doses are left out.

Test system: L1210 leukemia ip in BDF1 mice, survival T/C
Assay: NCI In Vivo Anticancer Drug Screen. Data for tumor model L1210 Leukemia (intraperitoneal) in B6D2F1 (BDF1) mice
Settings: endpoint: mean survival time, higher = longer survival
Method in brief: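 Each compound was tested against a transplantable tumor grown in mice. The endpoint was survival, with treated animals benchmarked against vehicle controls as a simple ratio.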

[1] = dose: 100.0 mg/kg/injection, schedule: Q04DX002 (ip), vehicle: Klucel (hydroxypropylcellulose) (HPC)
[2] = dose: 200.0 mg/kg/injection, schedule: Q04DX002 (ip), vehicle: Klucel (hydroxypropylcellulose) (HPC)
[3] = dose: 400.0 mg/kg/injection, schedule: Q04DX002 (ip), vehicle: Klucel (hydroxypropylcellulose) (HPC)
[4] = dose: 100.0 mg/kg/injection, schedule: Q01DX009 (ip), vehicle: saline
[5] = dose: 200.0 mg/kg/injection, schedule: Q01DX009 (ip), vehicle: saline
[6] = dose: 400.0 mg/kg/injection, schedule: Q01DX009 (ip), vehicle: saline
[7] = dose: 400.0 mg/kg/injection, schedule: Q04DX003 (ip), vehicle: saline
[8] = dose: 100.0 mg/kg/injection, schedule: Q04DX003 (ip), vehicle: saline
[9] = dose: 200.0 mg/kg/injection, schedule: Q04DX003 (ip), vehicle: saline
[10] = dose: 100.0 mg/kg/injection, schedule: Q01DX001 (ip), vehicle: saline
[11] = dose: 200.0 mg/kg/injection, schedule: Q01DX001 (ip), vehicle: saline
[12] = dose: 100.0 mg/kg/injection, schedule: Q01DX001 (ip), vehicle: carboxymethylcellulose (CMC)
[13] = dose: 200.0 mg/kg/injection, schedule: Q01DX001 (ip), vehicle: carboxymethylcellulose (CMC)
[14] = dose: 400.0 mg/kg/injection, schedule: Q01DX001 (ip), vehicle: carboxymethylcellulose (CMC)
[15] = dose: 100.0 mg/kg/injection, schedule: Q04DX003 (ip), vehicle: Klucel (hydroxypropylcellulose) (HPC)
[16] = dose: 200.0 mg/kg/injection, schedule: Q04DX003 (ip), vehicle: Klucel (hydroxypropylcellulose) (HPC)
[17] = dose: 400.0 mg/kg/injection, schedule: Q04DX003 (ip), vehicle: Klucel (hydroxypropylcellulose) (HPC)
[18] = dose: 100.0 mg/kg/injection, schedule: Q04DX003 (ip), vehicle: saline with Tween-80
[19] = dose: 200.0 mg/kg/injection, schedule: Q04DX003 (ip), vehicle: saline with Tween-80
[20] = dose: 400.0 mg/kg/injection, schedule: Q04DX003 (ip), vehicle: saline with Tween-80
[21] = dose: 100.0 mg/kg/injection, schedule: Q01DX009 (ip), vehicle: Klucel (hydroxypropylcellulose) (HPC)
[22] = dose: 200.0 mg/kg/injection, schedule: Q01DX009 (ip), vehicle: Klucel (hydroxypropylcellulose) (HPC)
[23] = dose: 400.0 mg/kg/injection, schedule: Q01DX009 (ip), vehicle: Klucel (hydroxypropylcellulose) (HPC)

Question: What does the source list for `O=C(c1ccc(Cl)cc1)N1CCC(CCCc2ccccc2)CC1`?
Answer: T/C [1]: 96 % of control; T/C [2]: 99 % of control; T/C [3]: 96 % of control

Question: What does the source list for `Nc1n[nH]c(=O)[nH]1`?
Answer: T/C (dose: 44.0 mg/kg/injection, schedule: Q03HX024 (ip), vehicle: saline): 108 % of control; T/C (dose: 67.0 mg/kg/injection, schedule: Q03HX024 (ip), vehicle: saline): 107 % of control; T/C [4]: 115 % of control; T/C (dose: 100.0 mg/kg/injection, schedule: Q03HX024 (ip), vehicle: saline): 112 % of control; T/C (dose: 177.0 mg/kg/injection, schedule: Q01DX009 (ip), vehicle: saline): 120 % of control; T/C [5]: 121 % of control; T/C (dose: 225.0 mg/kg/injection, schedule: Q03HX024 (ip), vehicle: saline): 153 % of control; T/C (dose: 266.0 mg/kg/injection, schedule: Q01DX009 (ip), vehicle: saline): 180 % of control; T/C (dose: 266.0 mg/kg/injection, schedule: Q04DX003 (ip), vehicle: saline): 104 % of control; T/C [6]: 185 % of control; T/C [7]: 113 % of control; T/C (dose: 600.0 mg/kg/injection, schedule: Q01DX009 (ip), vehicle: saline): 164 % of control and 186 % of control; T/C (dose: 600.0 mg/kg/injection, schedule: Q04DX003 (ip), vehicle: saline): 118 % of control

Question: Which results are given for `Brc1cnn2c1NCC2`?
Answer: T/C (dose: 12.5 mg/kg/injection, schedule: Q01DX009 (ip), vehicle: water): 100 % of control; T/C (dose: 12.5 mg/kg/injection, schedule: Q04DX003 (ip), vehicle: water): 95 % of control; T/C (dose: 25.0 mg/kg/injection, schedule: Q01DX009 (ip), vehicle: water): 101 % of control; T/C (dose: 25.0 mg/kg/injection, schedule: Q04DX003 (ip), vehicle: water): 100 % of control; T/C (dose: 50.0 mg/kg/injection, schedule: Q01DX009 (ip), vehicle: water): 97 % of control; T/C (dose: 50.0 mg/kg/injection, schedule: Q04DX003 (ip), vehicle: water): 101 % of control; T/C (dose: 100.0 mg/kg/injection, schedule: Q01DX009 (ip), vehicle: water): 97 % of control and 89 % of control; T/C (dose: 200.0 mg/kg/injection, schedule: Q01DX009 (ip), vehicle: water): 93 % of control

Question: What does the source list for `NC(=O)c1cc(Cl)cc(Cl)c1Br`?
Answer: T/C (dose: 100.0 mg/kg/injection, schedule: Q04DX003 (ip), vehicle: other): 95 % of control; T/C (dose: 200.0 mg/kg/injection, schedule: Q04DX003 (ip), vehicle: other): 103 % of control

Question: Which results are given for `CCCCn1c(C)cc2c(c1=O)COC(=O)C2(O)CC` (configuration not stated)?
Answer: T/C (dose: 2.5 mg/kg/injection, schedule: Q04DX003 (ip), vehicle: saline): 101 % of control; T/C (dose: 5.0 mg/kg/injection, schedule: Q04DX003 (ip), vehicle: saline): 98 % of control; T/C (dose: 10.0 mg/kg/injection, schedule: Q04DX003 (ip), vehicle: saline): 100 % of control; T/C (dose: 20.0 mg/kg/injection, schedule: Q04DX003 (ip), vehicle: saline): 96 % of control; T/C (dose: 40.0 mg/kg/injection, schedule: Q04DX003 (ip), vehicle: saline): 94 % of control

Question: What does the source list for `Cc1cnc(NS(=O)(=O)c2ccc(N)cc2)nc1-c1ccccc1O`?
Answer: T/C [1]: 98 % of control; T/C [2]: 98 % of control; T/C [3]: 91 % of control

Question: `Cc1ccc(S(=O)(=O)Nc2ccccc2-c2nc3c(Cl)ccc(Cl)c3c(=O)o2)cc1` was tested. Which T/C (dose: 100.0 mg/kg/injection, schedule: Q01DX009 (ip), vehicle: other) did it give?
Answer: 105 % of control

Question: And the T/C [8]?
Answer: 88 % of control

Question: What about the T/C (dose: 200.0 mg/kg/injection, schedule: Q01DX009 (ip), vehicle: other) of the same compound?
Answer: 96 % of control

Question: And the T/C [9]?
Answer: 93 % of control

Question: What about the T/C (dose: 400.0 mg/kg/injection, schedule: Q01DX009 (ip), vehicle: other) of the same compound?
Answer: 104 % of control

Question: And the T/C [7]?
Answer: 90 % of control

Question: With `O=S(=O)(Nc1ncccn1)c1ccc(N=Nc2ccc(O)c3ncccc23)cc1` as the compound, how does the T/C [10] read?
Answer: 100 % of control

Question: What about the T/C [11] of the same compound?
Answer: 103 % of control

Question: What about the T/C (dose: 400.0 mg/kg/injection, schedule: Q01DX001 (ip), vehicle: saline) of the same compound?
Answer: 103 % of control

Question: For `O=C1c2ccccc2C(=O)c2c(O)c(N3CCCCC3)cc(O)c21`, which T/C [4] is on record?
Answer: 91 % of control

Question: And the T/C [8]?
Answer: 88 % of control

Question: And the T/C [5]?
Answer: 89 % of control

Question: And the T/C [9]?
Answer: 88 % of control

Question: And the T/C [6]?
Answer: 94 % of control

Question: What about the T/C [7] of the same compound?
Answer: 92 % of control

Question: What does the source list for `COc1ccc(CN2CCCN(Cc3ccc(OC)cc3OC)C2c2ccc(N(CCCl)CCCl)cc2F)c(OC)c1`?
Answer: T/C (dose: 50.0 mg/kg/injection, schedule: Q01DX001 (ip), vehicle: carboxymethylcellulose (CMC)): 104 % of control; T/C [12]: 98 % of control; T/C [13]: 104 % of control; T/C [14]: 106 % of control

Question: For `O=c1[nH]nc(N/N=C/c2ccccc2)n1/N=C/c1ccccc1`, which T/C [15] is on record?
Answer: 100 % of control

Question: And the T/C [16]?
Answer: 96 % of control

Question: And the T/C [17]?
Answer: 94 % of control

Question: `CCCCCCCCCCOc1ccc(OCCCCCCCCC)cc1` was tested. Which T/C [18] did it give?
Answer: 94 % of control

Question: And the T/C [19]?
Answer: 100 % of control

Question: And the T/C [20]?
Answer: 87 % of control

Question: For `CS(=O)(=O)OCCN(CCOS(C)(=O)=O)c1ccc(C=Nc2ccc3ccccc3c2)cc1`, which T/C (dose: 20.0 mg/kg/injection, schedule: Q04DX003 (ip), vehicle: Klucel (hydroxypropylcellulose) (HPC)) is on record?
Answer: 110 % of control

Question: And the T/C (dose: 40.0 mg/kg/injection, schedule: Q04DX003 (ip), vehicle: Klucel (hydroxypropylcellulose) (HPC))?
Answer: 117 % of control

Question: And the T/C (dose: 53.3 mg/kg/injection, schedule: Q04DX003 (ip), vehicle: Klucel (hydroxypropylcellulose) (HPC))?
Answer: 152 % of control

Question: What about the T/C [15] of the same compound?
Answer: 120 % of control

Question: What about the T/C (dose: 120.0 mg/kg/injection, schedule: Q04DX003 (ip), vehicle: Klucel (hydroxypropylcellulose) (HPC)) of the same compound?
Answer: 95 % of control and 100 % of control

Question: `Cc1cccc(Cl)c1NC1=NCCO1` was tested. Which T/C (dose: 6.25 mg/kg/injection, schedule: Q01DX009 (ip), vehicle: saline with Tween-80) did it give?
Answer: 93 % of control

Question: And the T/C (dose: 12.5 mg/kg/injection, schedule: Q01DX009 (ip), vehicle: saline with Tween-80)?
Answer: 102 % of control

Question: And the T/C (dose: 25.0 mg/kg/injection, schedule: Q01DX009 (ip), vehicle: saline with Tween-80)?
Answer: 100 % of control

Question: What does the source list for `CCOc1ccccc1NC(=O)Nc1ccccc1C`?
Answer: T/C [21]: 102 % of control; T/C [15]: 101 % of control; T/C [22]: 100 % of control; T/C [16]: 105 % of control; T/C [23]: 94 % of control; T/C [17]: 103 % of control

Question: How did the T/C (dose: 6.25 mg/kg/injection, schedule: Q01DX009 (ip), vehicle: saline) turn out when `C(COCC1CO1)OCC1CO1` (configuration not stated) was run?
Answer: 115 % of control

Question: What about the T/C (dose: 12.5 mg/kg/injection, schedule: Q01DX009 (ip), vehicle: saline) of the same compound?
Answer: 110 % of control

Question: And the T/C (dose: 25.0 mg/kg/injection, schedule: Q01DX009 (ip), vehicle: saline)?
Answer: 110 % of control and 118 % of control

Question: What about the T/C [4] of the same compound?
Answer: 120 % of control

Question: What about the T/C [8] of the same compound?
Answer: 122 % of control

Question: And the T/C (dose: 200.0 mg/kg/injection, schedule: Q01DX Z (ip), vehicle: saline)?
Answer: 121 % of control

Question: And the T/C [9]?
Answer: 91 % of control

Question: And the T/C (dose: 300.0 mg/kg/injection, schedule: Q01DX Z (ip), vehicle: saline)?
Answer: 114 % of control

Question: And the T/C (dose: 450.0 mg/kg/injection, schedule: Q01DX Z (ip), vehicle: saline)?
Answer: 122 % of control

Question: Which results are given for `O=C1NC(c2ccccc2)(c2ccccc2)C(O)N1CCO` (configuration not stated)?
Answer: T/C [18]: 101 % of control; T/C [19]: 101 % of control; T/C [20]: 98 % of control

Question: How did the T/C [10] turn out when `CCCCC(=O)N/N=C\c1ccc(-c2ccccc2)cc1` was run?
Answer: 93 % of control

Question: What about the T/C [11] of the same compound?
Answer: 96 % of control

Question: With `CN(C)/N=C/c1ccccc1C(=O)O` as the compound, how does the T/C (dose: 50.0 mg/kg/injection, schedule: Q04DX003 (ip), vehicle: saline with Tween-80) read?
Answer: 101 % of control

Question: What about the T/C [18] of the same compound?
Answer: 97 % of control

Question: And the T/C [19]?
Answer: 96 % of control

Question: What about the T/C [20] of the same compound?
Answer: 106 % of control

Question: With `COC(=O)c1ccc(C(=O)O)cc1[N+](=O)[O-]` as the compound, how does the T/C [21] read?
Answer: 102 % of control

Question: And the T/C [22]?
Answer: 102 % of control

Question: And the T/C [23]?
Answer: 90 % of control

Question: What does the source list for `Cc1cc(N(CCCl)CCCl)ccc1C=NC1CCCC1`?
Answer: T/C [12]: 102 % of control; T/C [13]: 105 % of control; T/C [14]: 118 % of control
